The text below walks through data of a melting point compilation (Tetko et al.; mined from patent text by program, amines drawn as free bases though some values may be those of a salt).

As a reminder, the melting point is the temperature, or range, at which the solid turns liquid.

Molecule `CSc1nccc(C(C#N)C(=O)c2ccccc2)n1` (centres undefined) came in with a melting point of 163 to 164 °C.

The molecule `O=c1[nH]c2cc([N+](=O)[O-])c(S(=O)(=O)N(CCO)CCO)cc2[nH]c1=O` gave a melting point of 310 to 321 °C.

As for `Oc1ccc2c(c1)COc1c-2cc2ccc(O)cc2c1-c1cccc(C(F)(F)F)c1`, the melting point lay in the range of 228 to 231 °C.

`CC(C)(C)c1cc(N=C2CCCc3cc4c(nc32)C(=Nc2cc(C(C)(C)C)cc(C(C)(C)C)c2)CCC4)cc(C(C)(C)C)c1`: the melting point is 129 to 132 °C.

Take `NS(=O)(=O)c1cc2cccc(O)c2s1`: the melting point fell in the range of 196 to 198 °C.

The molecule `CNCC1Cc2cc(-c3cccc(F)c3)cc(F)c2O1` (centres undefined) came in with a melting point of more than 250 °C.

Consider `Cc1cccc(C2(c3cccc(C)c3)CCC(=O)[C@H]3CN(C(=O)Cc4ccccc4)C[C@H]32)c1` (racemic), for which the melting point amounted to 207 °C.

As to `COC(=O)C(C)(C)Nc1nc(Cl)ccc1[N+](=O)[O-]`, the melting point is 96 to 97 °C.

In turn, `COc1ccc(C(CN(C)C)C2(O)C=CCCC2)cc1` (centres undefined) came in with a melting point of 128 to 130 °C.

The molecule `CCC1=C(C(=O)OC)C(c2cccc([N+](=O)[O-])c2)c2c(nc(N3CCOCC3)nc2N2CCOCC2)N1` (centres undefined) yielded a melting point of 225 °C.

`CNc1c(S(=O)(=O)C(F)(F)F)c(C)nn1-c1c(Cl)cc(C(F)(F)F)cc1Cl`: the melting point was 139 to 140 °C.

For `O=C1NCCN1C(c1ccccc1)c1ccccc1`, the melting point lay in the range of 200 to 202 °C.

With `COc1cccc(C2=C(C#N)C(c3cccc4nonc34)c3c[nH]nc3N2)c1` (centres undefined), the melting point was 198 °C.

As for `NC(=O)C(Nc1ccc(Cl)cc1)c1c(Cl)ccc(N)c1Cl` (centres undefined), the melting point amounted to 232 °C.

`CC1(C)CCC(C)(C)c2cc(C(N)C(=O)Nc3ccc(C(=O)O)cc3)ccc21` (centres undefined) gave a melting point of 203 to 204 °C.

`CCOC(=O)[C@H](COCc1ccccc1)NC(=O)C(C)(C)NC(=O)[C@@H](SC(C)=O)C(C)C` registered a melting point of 55 to 57 °C.

As for `COc1cccc(OC)c1C(=O)Nc1nc[nH]n1`, the melting point was 191 to 193 °C.

Take `Cc1cc(=O)[nH]c2cc(OCCCN3CCN(c4cccc(Cl)c4)CC3)ccc12`: the melting point fell in the range of 212 to 214 °C.

Molecule `COc1ccc(S(=O)(=O)Nc2cccnc2Nc2ccccc2F)cc1` registered a melting point of 148 to 150 °C.

In the case of `CCOC(=O)CNC(=O)c1c(Cl)c2cc(Oc3ccc(C(F)(F)F)cc3)ccc2n1-c1ccc(OC(C)C)cc1`, the melting point was in the range of 80 to 81 °C.

`COc1ccc(OCC(=O)N[C@@H](Cc2ccccc2)C(=O)CSCc2ccsc2)cc1` displayed a melting point of 80 to 81 °C.

In turn, `CC(=O)Nc1nc(C)c(S(=O)(=O)NN2CCN(C)CC2)s1` yielded a melting point of 245 °C.

Take `O=c1oc2ncccc2n1CCBr`: the melting point fell in the range of 109 to 110 °C.

As for `Cc1cc(-n2ccc(OCc3ccc(OC(F)F)cc3)cc2=O)sc1C(=O)NCc1ccccc1`, the melting point is 178 to 180 °C.

In turn, `CCCCc1nc(Cl)c(Cl)n1Cc1ccc(-n2cccc2C(=O)O)cc1` registered a melting point of 181 to 182 °C.

Molecule `Nc1nc(N)c(-c2cccc(Cl)c2Cl)c(COc2ccccc2)n1` displayed a melting point of 211 to 213 °C.

The molecule `COC(=O)c1nc(-c2ccc(Cl)c(OC)c2F)cc(N)c1C` had a melting point of 122 to 125 °C.

`O=C(NC(=O)c1c(F)cccc1F)Nc1ccc(F)c(C(F)(F)F)c1Cl` gave a melting point of 214 °C.

The molecule `CC(C)(C)OC(=O)N1CC=C(c2ccc(N)cc2F)CC1` gave a melting point of 96 to 98 °C.

The molecule `CCOC(=O)/C=C/C(C)(C)NC(=O)OC(C)(C)C` registered a melting point of 40 to 41 °C.

Turning to `CCOC(=O)CS(=O)(=O)c1cc(NS(=O)(=O)c2cccs2)c2ccccc2c1O`, the melting point lay in the range of 154 to 156 °C.

Molecule `CS(=O)(=O)N1CCN(c2ccc(N)cc2)CC1` gave a melting point of 192 to 193 °C.

With `CC(=O)N1CC[C@H]2Cc3ccccc3[C@@H](c3ccccc3)N2CC1` (racemic), the melting point fell in the range of 145 to 147 °C.

Molecule `COCCOCCn1cc(C(=O)NCc2ccc(Cl)cc2)c(=O)c2cc(CN(C)[C@H](C)[C@@H](O)c3ccccc3)ccc21` yielded a melting point of 106 to 109 °C.

The molecule `CC12CCC(C1)C(C)(C)C2(S)CCO` (centres undefined) came in with a melting point of 55 to 60 °C.

`CC(=O)Oc1ccc(N=c2scc(-c3ccc(Cl)c(S(=O)(=O)N(C)C)c3)n2C)cc1` displayed a melting point of 173 to 174 °C.

`COc1cccc2c1CN(Nc1ccncc1)CC2` showed a melting point of 170 to 171 °C.

Consider `CCOC(=O)/C=C/C(=C(c1ccc(F)cc1)c1ccc(F)cc1)C(C)C`, for which the melting point was 66 to 67 °C.

Take `COC(=O)C1=C(C)NC(C)=C(C(=O)CS(=O)(=O)N(C)C)C1c1cccc([N+](=O)[O-])c1` (centres undefined): the melting point lay within 154 to 157 °C.

`O=C(O)C(F)(CCC(F)(F)C(F)(F)C(F)(F)C(F)(F)F)C(F)(F)F` (centres undefined) registered a melting point of 45 to 46 °C.

Regarding `Nc1ccc(N2C(=O)CCCC2=O)cc1`, the melting point was 214 to 215 °C.

Take `CCOC(=O)C(=O)Cc1ncc([N+](=O)[O-])n1C`: the melting point is 141 °C.

In turn, `Cc1[nH]c(=O)c(C#N)c2c1CC(c1ccccc1)CC2` (centres undefined) displayed a melting point of more than 290 °C.

`COc1cc(OC)cc(N2CCN(C(=O)N(C)c3cc(C(C)OC)c(C)nc3OC)CC2)c1` (centres undefined) returned a melting point of 117 to 119 °C.

For `COc1cc(OC)c(-c2cc3ccccc3n2C)cc1C=CC(=O)c1ccc(S(=O)(=O)Nc2cc(C)on2)cc1`, the melting point was 220 °C.

In the case of `Cc1oc(-c2ccccc2)nc1COc1ccc(C(C)CCC2SC(=O)NC2=O)cc1` (centres undefined), the melting point is 64 to 65 °C.

Turning to `CC(=O)Nc1cccc(-c2ccc(C)c(COc3cccc4ccc(C)nc34)c2C)c1`, the melting point fell in the range of 197 to 199 °C.

`CCN1C(=O)c2cccnc2N(C)c2nc(-c3ccc[nH]3)ccc21` registered a melting point of 161 to 162 °C.

With `CC(C)(C)Oc1ccc(C(=O)NCCCCCCCNC(=O)c2ccc(OC(C)(C)C)cc2)cc1`, the melting point fell in the range of 135 to 136 °C.

`CCN(CC)CCNC(=O)c1cccc2c(=O)c(C)c(-c3cccc(C)c3)oc12`: the melting point is 79.5 to 86 °C.

`CNc1nc(-c2ccc(Cl)c(Cl)c2)cs1` gave a melting point of 220 to 221 °C.

Regarding `CC(C)(C)OC(=O)N1CCC2(CC1)CC(c1ccc(CNS(C)(=O)=O)c(F)c1)=NO2`, the melting point lay in the range of 178 to 182 °C.

Regarding `COc1cc(C)c(C)[nH]c1=O`, the melting point was 215 to 219 °C.

As to `CCNC(=O)[C@H](C)C[C@H](O)[C@H](CC1CCCCC1)NC(=O)[C@H](Cc1cscn1)NC(=O)OC(C)(C)C`, the melting point fell in the range of 179 to 181 °C.

As to `CSc1nnc(-c2ccccc2CS(N)(=O)=O)o1`, the melting point is 138 to 140 °C.

The molecule `COc1ccc2c(c1)CC(NCC(=O)O)CC2` (centres undefined) showed a melting point of 203 °C.

In turn, `NC(CN1CCC(=C2c3ccccc3C=Cc3ccccc32)CC1)C(=O)NCC(=O)O` (centres undefined) yielded a melting point of 175 to 176 °C.

The molecule `CCOC(=O)c1cc(-c2ccc(Cl)cc2)cnc1C(F)(F)F` yielded a melting point of 84 to 85 °C.

`FC(F)(F)c1ccc(-c2cc(C(F)(F)F)n3ncc(-c4ccccn4)c3n2)cc1` yielded a melting point of 202 °C.

`COC(=O)CCCCCCC1=CCC(O)C1=O` (centres undefined) showed a melting point of 62.5 to 63.5 °C.

The molecule `COc1cc(C(=O)NC2CC(C)(C)N(C)C(C)(C)C2)ccc1-c1nc2cc(Cl)c(Cl)cc2[nH]1` displayed a melting point of 285 to 286 °C.

`COc1cc(C(=O)O)ccc1Cc1cn(C)c2ccc(C(=O)NC[C@H](C)CC(F)(F)F)cc12`: the melting point lay in the range of 218 to 223 °C.

`CC1CCC(NC(=O)NS(=O)(=O)c2ccc(CCNC(=O)N3CC4CCCCC4C3=O)cc2)CC1` (centres undefined) yielded a melting point of 153 to 155 °C.

Molecule `CC(C)COc1ccccc1-c1ncc(-c2nnn[nH]2)c(=O)[nH]1` displayed a melting point of 230 to 231 °C.

With `O=C(Nc1cccc(Cl)c1)Nc1cnnc(Cl)c1`, the melting point fell in the range of 240 to 248 °C.

On to `CC(C)(C)OC(=O)NCCc1ccnc(-c2nc(=O)c3ccc(Cl)cc3s2)c1`, for which the melting point fell in the range of 168 to 169 °C.

In turn, `O=C(c1ccncc1)N1CCN=C1Nc1c(Cl)cccc1Cl` had a melting point of 82.5 to 83.5 °C.

As to `CNC(=S)NCCSCc1ncccc1N`, the melting point was found to be 99.5 °C.

The molecule `COC(=O)[C@H]1C=C(C2CCCCC2)OC(=O)[C@H]1Cc1ccccc1` came in with a melting point of 87 to 89 °C.

`CCOC(=O)Cc1ccc(-c2ccc(OC)cc2)cc1` yielded a melting point of 68 °C.

Molecule `OCc1ccccc1-c1ccc(CBr)cc1` gave a melting point of 101 to 106 °C.

For `Cc1nc(C=CNC(=O)c2ccccc2)n[nH]1`, the melting point lay within 140 to 145 °C.

`COc1ccc2nc(CCCCCCC(=O)O)ccc2c1` registered a melting point of 84 to 87 °C.

For `COc1cc(O)c2c(c1O)CC=CC2`, the melting point fell in the range of 142 to 144 °C.

`Cc1nc(C(N)=O)cn1-c1ccc(Cl)cc1`: the melting point is 138 to 140 °C.

`O=S1CCON=C1c1ccc(Cl)s1` (centres undefined) had a melting point of 102 °C.

On to `CN(C)C(=O)c1c(C(=O)CBr)c2cc(Cl)ccc2n1C(=O)OC(C)(C)C`, for which the melting point lay in the range of 110 to 115 °C.

Turning to `CN1CC=C(c2c[nH]c3ccc(C[C@H]4COC(=O)N4)cc23)CC1`, the melting point fell in the range of 225 to 227 °C.

In turn, `COc1cc(N)c2c(c1)OC(C)C2` (centres undefined) had a melting point of 59 to 61 °C.

In turn, `O=C(O)c1ccc2c(c1)OC(c1cccc(Cl)c1)(c1cccc(Cl)c1)O2` came in with a melting point of 166 °C.

For the molecule `COC(=O)CCc1ccc(C(=O)O)cc1`, the melting point fell in the range of 146 to 148 °C.

In turn, `CCCN(CCC)C1Cc2cc3c(=O)[nH][nH]c(=O)c3cc2C1` registered a melting point of more than 300 °C.

Consider `COc1ccnc2c1C(=O)CC(c1ccccc1Cl)C2` (centres undefined), for which the melting point is 116 to 117 °C.

`O=C1c2ccccc2C(=O)N1CCCCCCc1cccnc1` registered a melting point of 90 to 92 °C.

In turn, `O=C(O)C(Cc1ccc2ccccc2c1)NC(=O)C(CS)C(F)(F)F` (centres undefined) showed a melting point of 165 to 167 °C.

On to `COc1ccc(N2CCC(=O)N(c3ccc(F)cc3)CC2)c(-c2ccc(N(C)C)cc2)n1`, for which the melting point was 130 to 139 °C.

In turn, `O=C(c1ccccc1)c1cc(Cl)cc2c(=O)cc[nH]c12` registered a melting point of 193 to 196 °C.

For the molecule `O=Cc1ccc2nc3c(cc2c1)-c1cccc2cccc-3c12`, the melting point lay within 245 to 246 °C.

Turning to `O=C(NCc1ccnc(Cl)c1)c1[nH]c2ccc(Cl)cc2c1S(=O)(=O)c1ccccc1`, the melting point fell in the range of 263 to 265 °C.
